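Exposure lasted 48 hours, with cells grown in 96-well plates and compounds tested at five concentrations. GI50 = concentration required for 50% inhibition of growth.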 Activity calls are given as the source filed them. No stated cut-off is given here; in the data, active = GI50 up to about 1.1 µM and inactive = higher.
How the values were obtained:
Experiment in all cases: NCI tumour cell line growth inhibition, 48 h
[1] = tested on: T47D
[2] = tested on: UACC-257
[3] = tested on: SW-620
[4] = tested on: RXF 393
[5] = tested on: M14
[6] = tested on: PC-3
[7] = tested on: SF-268
[8] = tested on: SNB-75
[9] = tested on: Hs-578T
[10] = tested on: SF-295
[11] = tested on: BT-549
[12] = tested on: LOX IMVI
[13] = tested on: SF-539
[14] = tested on: IGROV-1
[15] = tested on: Malme-3M
[16] = tested on: HCC 2998
[17] = tested on: SR
[18] = tested on: CCRF-CEM
[19] = tested on: UO-31
[20] = tested on: NCI-H23

**Q.** With `COc1ccc(/C=C2\C(=O)NC(=O)c3ccccc32)cc1OC` as the compound, how does the GI50 [1] read?
**A.** > 100 µM (inactive)

**Q.** What about the GI50 [2] of the same compound?
**A.** > 100 µM (inactive)

**Q.** And the GI50 [3]?
**A.** 16.6 µM (inactive)

**Q.** And the GI50 [4]?
**A.** 12.2 µM (inactive)

**Q.** And the GI50 [5]?
**A.** 57.5 µM (inactive)

**Q.** And the GI50 [6]?
**A.** 45.2 µM (inactive)

**Q.** What about the GI50 [7] of the same compound?
**A.** 18.2 µM (inactive)

**Q.** What about the GI50 [8] of the same compound?
**A.** 37.4 µM (inactive)

**Q.** And the GI50 [9]?
**A.** 53.5 µM (inactive)

**Q.** And the GI50 [10]?
**A.** 52.2 µM (inactive)

**Q.** And the GI50 [11]?
**A.** > 100 µM (inactive)

**Q.** What about the GI50 [12] of the same compound?
**A.** 10.5 µM (inactive)

**Q.** What about the GI50 [13] of the same compound?
**A.** 9.12 µM (inactive)

**Q.** And the GI50 [14]?
**A.** 13.8 µM (inactive)

**Q.** And the GI50 [15]?
**A.** > 86.9 µM (inactive)

**Q.** And the GI50 [16]?
**A.** > 46.6 µM (inactive)

**Q.** What about the GI50 [17] of the same compound?
**A.** 2.42 µM (inactive)

**Q.** What about the GI50 [18] of the same compound?
**A.** 1.09 µM (active)

**Q.** What about the GI50 [19] of the same compound?
**A.** 29.9 µM (inactive)

**Q.** And the GI50 [20]?
**A.** 49.8 µM (inactive)

**Q.** Which results are given for `COc1ccc(NC2CC(C)N(C(=O)c3ccccc3)O2)cc1` (stereo not given)?
**A.** GI50 [1]: > 10 µM (inactive); GI50 [2]: > 10 µM (inactive); GI50 [3]: > 10 µM (inactive); GI50 [4]: > 10 µM (inactive); GI50 [5]: > 10 µM (inactive); GI50 [6]: > 10 µM (inactive); GI50 [7]: > 10 µM (inactive); GI50 [8]: > 10 µM (inactive); GI50 [9]: > 10 µM (inactive); GI50 [10]: > 10 µM (inactive); GI50 [11]: 8.79 µM (inactive); GI50 [12]: > 10 µM (inactive); GI50 [13]: > 10 µM (inactive); GI50 [14]: > 10 µM (inactive); GI50 [15]: > 10 µM (inactive); GI50 [16]: > 10 µM (inactive); GI50 [17]: > 10 µM (inactive); GI50 [18]: > 10 µM (inactive); GI50 [19]: > 10 µM (inactive); GI50 [20]: > 10 µM (inactive)
